Measurements published in publication PMC9687610, “Adenosine-Mimicking Derivatives of 3-Aminopyrazine-2-Carboxamide: Towards Inhibitors of Prolyl-tRNA Synthetase with Antimycobacterial Activity” (Biomolecules, 2022).
pIC50: −log10 of the molar value. In brackets after ≈: the same amount, converted by molar mass.

How the values were obtained:
[1] = system: Mycobacterium tuberculosis H37Ra ITM-M006710 (ATCC 9431); assay: Microplate Alamar Blue Assay (MABA), Mtb H37Ra; format: cell-based; details: for MIC: Mycobacterium tuberculosis, 120 h, pH 6.6, MABA, Middlebrook 7H9 broth pH 6.6, resazurin after 120 h, read-out: Mtb H37Ra MIC; for antimycobacterial activity (in words): activity refers to Mtb H37Ra from the primary screening if not otherwise stated
[2] = system: Mycobacterium smegmatis DSM 43465 (ATCC 607); assay: Microplate Alamar Blue Assay (MABA), M. smegmatis; format: cell-based; details: Mycolicibacterium smegmatis; MABA, resazurin after 48 h; read-out: M. smegmatis MIC
[3] = system: M. aurum DSM 43999 (ATCC 23366); assay: Microplate Alamar Blue Assay (MABA), M. aurum; format: cell-based; details: Mycolicibacterium aurum; MABA, resazurin after 72 h; read-out: M. aurum MIC
[4] = system: Staphylococcus aureus subsp. aureus CCM 4223 (ATCC 29213); assay: Antibacterial microdilution broth (EUCAST), SA; format: cell-based; details: Staphylococcus aureus; read after 24 h; read-out: SA MIC
[5] = system: Staphylococcus aureus subsp. aureus methicillin-resistant (MRSA) CCM 4750 (ATCC 43300); assay: Antibacterial microdilution broth (EUCAST), MRSA; format: cell-based; details: Staphylococcus aureus; read after 24 h; read-out: MRSA MIC
[6] = system: Staphylococcus epidermidis CCM 4418 (ATCC 12228); assay: Antibacterial microdilution broth (EUCAST), SE; format: cell-based; details: read after 24 h, read-out: SE MIC
[7] = system: Enterococcus faecalis CCM 4224 (ATCC 29212); assay: Antibacterial microdilution broth (EUCAST), EF; format: cell-based; details: Enterococcus faecalis; read after 24 h; read-out: EF MIC
[8] = system: Escherichia coli CCM 3954 (ATCC 25922); assay: Antibacterial microdilution broth (EUCAST), EC; format: cell-based; details: Escherichia coli; read after 24 h; read-out: EC MIC
[9] = system: Acinetobacter baumannii DSM 30007 (ATCC 19606); assay: Antibacterial microdilution broth (EUCAST), ACI; format: cell-based; details: Acinetobacter baumannii; read after 24 h; read-out: ACI MIC
[10] = system: Pseudomonas aeruginosa CCM 3955 (ATCC 27853); assay: Antibacterial microdilution broth (EUCAST), PA; format: cell-based; details: Pseudomonas aeruginosa; read after 24 h; read-out: PA MIC
[11] = system: Candida albicans CCM 8320 (ATCC 24433); assay: Antifungal microdilution broth (EUCAST), CA; format: cell-based; details: Candida albicans; read after 24 h; read-out: CA MIC
[12] = system: Candida krusei CCM 8271 (ATCC 6258); assay: Antifungal microdilution broth (EUCAST), CK; format: cell-based; details: Pichia kudriavzevii; read after 24 h; read-out: CK MIC
[13] = system: Candida parapsilosis CCM 8260 (ATCC 22019); assay: Antifungal microdilution broth (EUCAST), CP; format: cell-based; details: Lodderomyces parapsilosis; read after 24 h; read-out: CP MIC
[14] = system: Candida tropicalis CCM 8264 (ATCC 750); assay: Antifungal microdilution broth (EUCAST), CT; format: cell-based; details: Candida tropicalis; read after 24 h; read-out: CT MIC
[15] = system: Aspergillus fumigatus ATCC 204305; assay: Antifungal microdilution broth (EUCAST), AF; format: cell-based; details: Aspergillus fumigatus, ATCC204305; read after 24 h; read-out: AF MIC
[16] = system: Aspergillus flavus CCM 8363; assay: Antifungal microdilution broth (EUCAST), AFla; format: cell-based; details: Aspergillus flavus, CCM8363; read after 24 h; read-out: AFla MIC
[17] = system: Lichtheimia corymbifera CCM 8077; assay: Antifungal microdilution broth (EUCAST), LC; format: cell-based; details: Lichtheimia corymbifera, CCM8077; read after 24 h; read-out: LC MIC
[18] = system: Trichophyton interdigitale CCM 8377 (ATCC 9533); assay: Antifungal microdilution broth (EUCAST), TI; format: cell-based; details: Trichophyton interdigitale, 72 h, read-out: TI MIC
[19] = system: HepG2 human hepatocellular carcinoma cells; assay: In vitro HepG2 cytotoxicity (CellTiter 96); details: Homo sapiens, HepG2, 24 h, read-out: HepG2 IC50, 24 h incubation; * limit = highest evaluated concentration (precipitation in medium); ** over the 1000 µM limit
[20] = system: Klebsiella pneumoniae CCM 4415 (ATCC 10031); assay: Antibacterial microdilution broth (EUCAST), KP; details: read after 24 h

| Compound | MIC [1] [µg/mL] | MIC [2] [µg/mL] | MIC [3] [µg/mL] | MIC [4] [µM] | MIC [5] [µM] | MIC [6] [µM] | MIC [7] [µM] | MIC [8] [µM] | MIC [9] [µM] | MIC [10] [µM] | MIC [11] [µM] | MIC [12] [µM] | MIC [13] [µM] | MIC [14] [µM] | MIC [15] [µM] | MIC [16] [µM] | MIC [17] [µM] | MIC [18] [µM] | melting point [°C] | pIC50 [19] | further results |
| --- | --- | --- | --- | --- | --- | --- | --- | --- | --- | --- | --- | --- | --- | --- | --- | --- | --- | --- | --- | --- | --- |
| CN(C)C(=O)c1nccnc1NC(=O)c1ccc(Cl)cc1 [Compound 37] | ≥ 500 | ≥ 500 | ≥ 500 | > 500 | > 500 | > 500 | > 500 | > 500 | > 500 | > 500 | > 500 | > 500 | > 500 | > 500 | > 500 | > 500 | > 500 | > 500 | 184.1 to 185.3 | < 3.00 | antimycobacterial activity (in words) [1]: inactive; KP MIC [20]: > 500 µM |
| CNC(=O)c1nccnc1NC(=O)c1ccc(Cl)cc1 [Compound 34] | ≥ 500 | ≥ 500 | ≥ 500 | > 125 | > 125 | > 125 | > 125 | > 125 | > 125 | > 125 | > 125 | > 125 | > 125 | > 125 | > 125 | > 125 | > 125 | > 125 | 204.2 to 205.1 | < 4.00 | KP MIC [20]: > 125 µM |
| CCCCCC(=O)Nc1nccnc1C(N)=O [Compound 30] | ≥ 500 | ≥ 500 | ≥ 250 | > 500 | > 500 | > 500 | > 500 | > 500 | > 500 | > 500 | > 500 | > 500 | > 500 | > 500 | > 500 | > 500 | > 500 | > 500 | 138.4 to 139 | 3.25 | KP MIC [20]: > 500 µM |
| O=c1[nH]c(-c2ccc(Cl)cc2)nc2nccnc12 [Compound 42] | ≥ 500 | ≥ 500 | ≥ 500 | > 125 | > 125 | > 125 | > 125 | > 125 | > 125 | > 125 | > 125 | > 125 | > 125 | > 125 | > 125 | > 125 | > 125 | > 125 | 306.5 to 307.9 | < 3.60 | KP MIC [20]: > 125 µM |
| NC(=O)c1nccnc1NC(=O)Cc1ccc(F)cc1 [Compound 25] | ≥ 250 | ≥ 250 | ≥ 250 | > 250 | > 250 | > 250 | > 250 | > 250 | > 250 | > 250 | > 250 | > 250 | > 250 | > 250 | > 250 | > 250 | > 250 | > 250 | 225.3 to 227.3 | < 4.00 | antimycobacterial activity (in words) [1]: inactive; KP MIC [20]: > 250 µM |
| O=c1[nH]c(-c2ccc(Br)cc2)nc2nccnc12 [Compound 43] | 31.2 (≈ 103 µM) | ≥ 500 | ≥ 500 | > 125 | > 125 | > 125 | > 125 | > 125 | > 125 | > 125 | > 125 | > 125 | > 125 | > 125 | > 125 | > 125 | > 125 | > 125 | 315.4 to 317.4 | < 3.60 | KP MIC [20]: > 125 µM |
| CNC(=O)c1nccnc1NC(=O)c1ccc(Br)cc1 [Compound 35] | ≥ 500 | ≥ 500 | ≥ 500 | > 125 | > 125 | > 125 | > 125 | > 125 | > 125 | > 125 | > 125 | > 125 | > 125 | > 125 | > 125 | > 125 | > 125 | > 125 | 202 to 202.5 | < 4.30 | KP MIC [20]: > 125 µM |
| CCCC(=O)Nc1nccnc1C(N)=O [Compound 29] | ≥ 500 | ≥ 500 | ≥ 500 | > 500 | > 500 | > 500 | > 500 | > 500 | > 500 | > 500 | > 500 | > 500 | > 500 | > 500 | > 500 | > 500 | > 500 | > 500 | 158.7 to 159.5 | < 3.00 | KP MIC [20]: > 500 µM |
